Reference: article PMC4942819 (Scientific Reports, 2016)

Tests used:
CYP2C19 = CYP2C19 (Homo sapiens, UniProt P33261); test: CYP inhibition; format: in vitro ADME
Description: (§1) The In vitro ADME/T assays were conducted at WuXi AppTec Co. Ltd.(Shanghai). ClogP was calculated with ChemDraw Ultra 14.0. In the study of bi-directional permeability across MDR1-MDCKII cell monolayer, permeability was correlated with the apparent permeability coefficient Papp (cm/s), which was interpreted as follows: Low permeability( Papp ≤ 1.0×10^-6 cm/s), Moderate permeability(1.0×10^-6 < Papp < 5.5×10^-6 cm/s) or High permeability( Papp ≥ 5.5×10^-6 cm/s). ^aaqueous solubility at room temperature.

CYP2C9 = CYP2C9 (Homo sapiens, UniProt P11712); test: CYP inhibition; format: in vitro ADME
CYP2C9, sequence (P11712 whole entry): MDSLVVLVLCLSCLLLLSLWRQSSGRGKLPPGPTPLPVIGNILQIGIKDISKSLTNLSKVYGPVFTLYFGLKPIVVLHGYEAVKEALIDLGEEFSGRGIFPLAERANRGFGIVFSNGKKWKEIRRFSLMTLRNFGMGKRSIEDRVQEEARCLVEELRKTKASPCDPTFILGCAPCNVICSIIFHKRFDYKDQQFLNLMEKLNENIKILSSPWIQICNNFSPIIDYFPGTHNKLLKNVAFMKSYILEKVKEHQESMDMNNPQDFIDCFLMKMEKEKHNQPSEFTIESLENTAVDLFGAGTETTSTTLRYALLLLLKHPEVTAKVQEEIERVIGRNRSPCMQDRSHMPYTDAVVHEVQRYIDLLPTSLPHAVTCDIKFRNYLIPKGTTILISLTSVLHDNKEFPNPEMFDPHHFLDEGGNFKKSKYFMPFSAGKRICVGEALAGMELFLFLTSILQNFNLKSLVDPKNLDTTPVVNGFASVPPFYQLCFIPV
Description: as §1

CYP3A4 = CYP3A4 (Homo sapiens, UniProt P08684); test: CYP inhibition; format: in vitro ADME
CYP3A4, sequence (P08684 whole entry): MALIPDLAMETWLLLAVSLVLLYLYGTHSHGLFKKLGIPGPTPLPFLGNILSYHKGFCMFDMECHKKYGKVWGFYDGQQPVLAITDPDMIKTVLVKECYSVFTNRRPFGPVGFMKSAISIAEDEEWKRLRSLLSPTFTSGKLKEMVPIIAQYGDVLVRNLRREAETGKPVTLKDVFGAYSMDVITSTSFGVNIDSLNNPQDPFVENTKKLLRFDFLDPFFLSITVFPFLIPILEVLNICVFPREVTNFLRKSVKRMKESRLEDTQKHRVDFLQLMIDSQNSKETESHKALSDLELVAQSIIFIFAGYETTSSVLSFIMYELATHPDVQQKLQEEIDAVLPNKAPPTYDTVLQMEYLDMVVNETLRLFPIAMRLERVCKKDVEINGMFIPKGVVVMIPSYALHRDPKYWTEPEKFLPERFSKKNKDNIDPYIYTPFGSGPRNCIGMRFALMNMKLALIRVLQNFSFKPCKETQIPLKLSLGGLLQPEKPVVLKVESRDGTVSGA
Description: as §1

CYP2D6 = CYP2D6 (Homo sapiens, UniProt P10635); test: CYP inhibition; format: in vitro ADME
CYP2D6, sequence (P10635 whole entry): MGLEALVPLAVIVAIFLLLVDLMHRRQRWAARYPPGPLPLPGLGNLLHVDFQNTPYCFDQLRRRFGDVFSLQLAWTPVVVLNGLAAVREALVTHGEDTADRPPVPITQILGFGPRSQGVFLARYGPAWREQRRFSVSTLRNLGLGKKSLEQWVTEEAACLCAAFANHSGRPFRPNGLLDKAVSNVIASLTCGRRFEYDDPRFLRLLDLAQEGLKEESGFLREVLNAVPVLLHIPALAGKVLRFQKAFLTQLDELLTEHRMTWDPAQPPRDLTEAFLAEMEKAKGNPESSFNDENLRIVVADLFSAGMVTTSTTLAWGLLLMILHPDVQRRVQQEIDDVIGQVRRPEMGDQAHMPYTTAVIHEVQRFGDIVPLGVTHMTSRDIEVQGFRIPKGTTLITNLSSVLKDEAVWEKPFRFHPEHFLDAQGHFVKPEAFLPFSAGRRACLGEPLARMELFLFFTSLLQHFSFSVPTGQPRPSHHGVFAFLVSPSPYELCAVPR
Description: as §1

J774A.1 cells = test: cytotoxicity, MTT assay; format: cell-based; conditions: Mus musculus, J774.A1
Description: (§2) The compounds were examined for toxicity (IC50) using MTT assay. Briefly, cells (3 ~ 5 × 10^3 cells/well) were seeded in a 96-well plate. After 24 h incubation, the cells were treated with various concentrations of drugs for 24, 48, 72 h, respectively. Columns one and two in the assay plates contained-media +0.1% DMSO for a negative control ,Then, 20 μl of a 5 mg/mL MTT solution was added to each well, and the plates were incubated for an additional 2~4 h at 37 °C. The medium was subsequently discarded, and DMSO 150 μL was added to dissolve the formazan. Oscillate 15 min, the OD 570 was measured using a Spectra MAX M5 microplate spectrophotometer (Molecular Devices, CA, USA), and the IC50 values were calculated.

A549 cells = test: cytotoxicity, MTT assay; format: cell-based; conditions: Homo sapiens
Description: as §2

plasma protein binding = format: in vitro ADME; conditions: mouse, (M), read-out: Plasma protein binding (converted)
Description: as §1

MDR1 = test: bi-directional permeability across MDR1-MDCKII cell monolayer; format: in vitro ADME; conditions: dog, MDCK-MDR1; MDR1-MDCKII
Description: as §1

[1] = in vivo acute toxicity study; design: species or system BALB/c mice; AST: unit not given here; conditions: for ALB / ALP / AST / BUN / CHOL / TP: 1 g/kg i.p., 2 weeks, Mean ± SE, n = 5
Description: All animal experiments have been approved by the Institutional Animal Care and Treatment Committee of Sichuan University in China and were carried out in accordance with the approved guidelines. 20 BALB/c mice in both sexes were administered with SKLB-TB1001 CMC suspension at 1 g/kg by intraperitoneal injection, control mice remained untreated. Animals were continuously observed for 24 hours after administration. In each group, numbers of deaths and general behavior were recorded within 2 weeks, LD50 values were calculated. 2 weeks later, animals were sacrificed, blood samples were collected from the eye vein for biochemical and hematological tests. The organs and tissues of animals were removed and fixed in 10% formalin and embedded in paraffin for histological evaluation.

CYP2C19, sequence (P33261 whole entry): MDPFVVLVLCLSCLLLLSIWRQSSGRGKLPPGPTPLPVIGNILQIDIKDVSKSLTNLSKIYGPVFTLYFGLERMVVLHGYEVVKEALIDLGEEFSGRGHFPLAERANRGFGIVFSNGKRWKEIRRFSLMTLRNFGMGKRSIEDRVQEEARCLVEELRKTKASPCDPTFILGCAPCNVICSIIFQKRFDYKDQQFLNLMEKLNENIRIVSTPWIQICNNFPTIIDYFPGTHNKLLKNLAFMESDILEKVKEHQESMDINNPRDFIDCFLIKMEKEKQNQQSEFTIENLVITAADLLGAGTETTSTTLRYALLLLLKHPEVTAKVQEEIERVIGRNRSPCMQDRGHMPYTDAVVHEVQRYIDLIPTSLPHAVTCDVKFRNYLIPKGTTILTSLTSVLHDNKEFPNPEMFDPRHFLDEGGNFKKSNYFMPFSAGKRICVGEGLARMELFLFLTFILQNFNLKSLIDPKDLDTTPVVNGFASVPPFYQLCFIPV

In the case of O=[N+]([O-])c1cc(C(F)(F)F)cc2c(=S)nc(N3CCC4(CC3)OCCO4)sc12 [SKLB-TB1001, 8-nitro-2-(1,4-dioxa-8-azaspiro[4.5]decan-8-yl)-6-(trifluoromethyl)-4H-benzo[e][1,3]thiazine-4-thione], the IC50 (CYP2C19) is reported as > 10 µM, the IC50 (CYP2C9) is reported as > 10 µM and the IC50 (CYP3A4) is reported as > 10 µM. For the same compound, the IC50 (CYP2D6) was > 10 µM, the IC50 (J774A.1 cells) was > 32 µg/mL and the IC50 (A549 cells) was > 100 µg/mL. It also gave a fraction unbound (plasma protein binding) of 0.038, a Papp A→B (MDR1) of 6.96 ×10⁻⁶ cm/s and a Papp B→A (MDR1) of 7.27 ×10⁻⁶ cm/s. The efflux ratio (MDR1) was 1.04, the “death in acute single dose toxicity studies” value ([1]; BALB/c mice, 1 g/kg, 14 days) was “no death” and the “pathological changes in heart, liver, lung, kidneys and spleen” value ([1]; BALB/c mice, 1 g/kg, 14 days) was “No observable pathological changes”. The maximum non-toxic dose ([1]; BALB/c mice, single dose, intraperitoneal) was “greater than 1 g/kg”, the ALB ([1]; Female Treatment) was 32.18 ± 0.65 g/L and the ALP ([1]; Female Treatment) was 162.00 ± 4.70 U/L. The AST ([1]; Female Treatment) was 154.60 ± 5.57, the BUN ([1]; Female Treatment) was 7.06 ± 0.35 mmol/L and the CHOL ([1]; Female Treatment) was 3.31 ± 0.08 mmol/L. The TP ([1]; Female Treatment) was 68.56 ± 1.42 g/L, the ALB ([1]; Male Treatment) was 32.84 ± 0.44 g/L and the ALP ([1]; Male Treatment) was 159.20 ± 6.98 U/L. It also gave an AST ([1]; Male Treatment) of 153.40 ± 4.30, a BUN ([1]; Male Treatment) of 7.10 ± 0.60 mmol/L and a CHOL ([1]; Male Treatment) of 3.31 ± 0.07 mmol/L. The TP ([1]; Male Treatment) was 68.38 ± 1.58 g/L.
